Experiments:
Test in all cases: relative viability (nuclei count vs DMSO), 5 days (fraction); higher = more cells survive
AZD5582 + Dasatinib = compound: C[C@@H](C(=O)N[C@@H](C1CCCCC1)C(=O)N2CCC[C@H]2C(=O)N[C@@H]3[C@@H](CC4=CC=CC=C34)OCC#CC#CCO[C@@H]5CC6=CC=CC=C6[C@@H]5NC(=O)[C@@H]7CCCN7C(=O)[C@H](C8CCCCC8)NC(=O)[C@H](C)NC)NC [AZD5582] + Cc1nc(Nc2ncc(C(=O)Nc3c(C)cccc3Cl)s2)cc(N2CCN(CCO)CC2)n1 [Dasatinib] (partner 0.075 µM)
How it was run: (§1)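 A single step with final 0.05% Triton X-100, 1% formaldehyde and 1 ug/ml Hoechst fixed the cells and stained nuclei 5 days after treatment. Lung cancer cell lines in 1536-well plates had been treated by pin tool the day after seeding with one drug alone or a fixed anchor-drug dose plus five library-drug doses (not always all listed) in √10 steps, and nuclei were counted on 4× images. Relative viability is the ratio of nuclei in treated wells to nuclei in vehicle wells, taken as the median of duplicate plates.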

Temozolomide + Lapatinib = compound: Cn1nnc2c(C(N)=O)ncn2c1=O [Temozolomide] + CS(=O)(=O)CCNCc1ccc(-c2ccc3ncnc(Nc4ccc(OCc5cccc(F)c5)c(Cl)c4)c3c2)o1 [Lapatinib] (partner 2 µM)
How it was run: as §1

AZD5582 + Pemetrexed = compound: C[C@@H](C(=O)N[C@@H](C1CCCCC1)C(=O)N2CCC[C@H]2C(=O)N[C@@H]3[C@@H](CC4=CC=CC=C34)OCC#CC#CCO[C@@H]5CC6=CC=CC=C6[C@@H]5NC(=O)[C@@H]7CCCN7C(=O)[C@H](C8CCCCC8)NC(=O)[C@H](C)NC)NC [AZD5582] + Nc1nc2[nH]cc(CCc3ccc(C(=O)N[C@@H](CCC(=O)O)C(=O)O)cc3)c2c(=O)[nH]1 [Pemetrexed] (partner 0.2 µM)
How it was run: as §1

AZD5582 + Linsitinib = compound: C[C@@H](C(=O)N[C@@H](C1CCCCC1)C(=O)N2CCC[C@H]2C(=O)N[C@@H]3[C@@H](CC4=CC=CC=C34)OCC#CC#CCO[C@@H]5CC6=CC=CC=C6[C@@H]5NC(=O)[C@@H]7CCCN7C(=O)[C@H](C8CCCCC8)NC(=O)[C@H](C)NC)NC [AZD5582] + C[C@]1(O)C[C@@H](c2nc(-c3ccc4ccc(-c5ccccc5)nc4c3)c3c(N)nccn32)C1 [Linsitinib] (partner 1 µM)
How it was run: as §1

| Cell Line | relative viability (AZD5582 + Dasatinib; first compound 0.001581 µM) | relative viability (AZD5582 + Dasatinib; first compound 0.005 µM) | relative viability (AZD5582 + Dasatinib; first compound 0.01581 µM) | relative viability (AZD5582 + Dasatinib; first compound 0.05 µM) | relative viability (Temozolomide + Lapatinib; first compound 0.6325 µM) | relative viability (Temozolomide + Lapatinib; first compound 2 µM) | relative viability (Temozolomide + Lapatinib; first compound 6.325 µM) | relative viability (Temozolomide + Lapatinib; first compound 20 µM) | relative viability (AZD5582 + Pemetrexed; first compound 0.001581 µM) | relative viability (AZD5582 + Pemetrexed; first compound 0.005 µM) | relative viability (AZD5582 + Pemetrexed; first compound 0.01581 µM) | relative viability (AZD5582 + Pemetrexed; first compound 0.05 µM) | relative viability (AZD5582 + Linsitinib; first compound 0.001581 µM) | relative viability (AZD5582 + Linsitinib; first compound 0.005 µM) | relative viability (AZD5582 + Linsitinib; first compound 0.01581 µM) | relative viability (AZD5582 + Linsitinib; first compound 0.05 µM) | relative viability (Temozolomide + Lapatinib; first compound 0.2 µM) |
| --- | --- | --- | --- | --- | --- | --- | --- | --- | --- | --- | --- | --- | --- | --- | --- | --- | --- |
| CAL-12T | 0.261 | 0.333 | 0.363 | 0.349 | 0.585 | 0.601 | 0.607 | 0.8 | 0.792 | 0.811 | 1.11 | 0.967 | 0.665 | 0.656 | 0.775 | 0.544 |  |
| HCC-44 |  |  |  |  | 1.01 | 1.11 | 1.05 | 0.975 | 0.587 | 0.615 | 0.614 | 0.402 | 0.589 | 0.558 | 0.616 | 0.432 | 1.14 |
| A-427 | 0.593 | 0.638 | 0.683 | 0.384 | 1.09 | 1.14 | 0.91 | 0.487 | 0.931 | 0.92 | 0.978 | 0.89 | 1.01 | 1.04 | 1.12 | 0.955 | 0.989 |
| NCI-H1666 | 0.656 | 0.814 | 0.757 | 0.846 | 0.706 | 0.486 | 0.495 | 0.536 | 0.788 | 0.879 | 0.794 | 0.71 | 0.779 | 0.713 | 0.848 | 0.861 | 0.626 |
| HCC-78 | 0.489 | 0.392 | 0.375 | 0.374 | 0.602 | 0.791 | 0.321 | 0.826 | 0.931 | 0.878 | 0.901 | 0.949 | 0.455 | 0.592 | 0.5 | 0.45 | 0.938 |
| HCC-366 | 0.614 | 0.658 |  | 0.647 | 1 | 1.1 | 1.08 | 1.07 | 0.119 | 0.155 | 0.15 | 0.152 | 0.7 | 0.754 | 0.622 | 0.822 | 1.18 |
| EPLC-272H | 0.0652 |  | 0.305 | 0.0573 | 1.05 | 1.01 | 0.798 | 0.858 |  |  | 0.346 | 0.104 | 0.624 | 0.717 | 0.984 | 0.229 | 1.12 |
| NCI-H1755 | 0.398 | 0.456 | 0.356 | 0.363 | 1.05 | 0.966 | 0.979 | 0.98 | 0.399 | 0.375 | 0.387 | 0.414 | 1.01 | 1.02 | 0.982 | 1.09 | 1.11 |
| SK-MES-1 | 0.246 | 0.445 | 0.367 | 0.279 | 0.466 | 0.463 | 0.505 | 0.458 | 0.904 | 1.01 | 0.975 | 0.939 | 1.1 | 1.16 | 1.04 | 1.17 | 0.478 |
| NCI-H838 | 0.293 | 0.344 |  | 0.191 | 1.03 | 1.17 | 0.945 | 1.25 | 0.258 | 0.246 | 0.235 | 0.262 | 0.973 | 0.968 | 0.842 | 1 | 0.998 |
| NCI-H2170 | 0.494 | 0.571 | 0.558 | 0.471 | 0.28 | 0.295 | 0.264 | 0.247 | 0.26 | 0.249 | 0.268 | 0.269 |  |  |  |  |  |
| HCC-827 | 0.342 | 0.218 | 0.289 | 0.411 | 0.238 | 0.191 | 0.191 | 0.195 | 0.272 | 0.273 | 0.283 | 0.205 | 0.897 | 0.968 | 0.885 | 0.948 | 0.207 |
| NCI-H1793 | 0.32 | 0.429 | 0.292 | 0.261 | 0.81 | 0.608 | 0.649 | 0.694 | 0.787 | 1.21 | 0.624 | 1.07 | 0.816 | 1.01 | 0.752 | 1.11 |  |
| NCI-H441 | 0.591 | 0.726 |  | 0.508 |  |  |  |  | 0.253 | 0.314 | 0.292 | 0.253 | 0.453 | 0.53 | 0.454 | 0.389 |  |
| H3255 | 0.329 | 0.404 | 0.294 | 0.283 | 0.243 | 0.233 | 0.376 | 0.241 | 0.492 | 0.563 | 0.512 | 0.573 | 0.81 | 0.975 | 0.839 | 0.893 |  |
| ABC-1 | 0.344 | 0.611 |  | 0.632 | 1.22 | 1.18 | 1.16 | 1.3 |  |  |  |  | 0.766 | 0.958 | 0.913 | 0.971 | 0.93 |
| 201T | 0.557 | 0.577 | 0.541 | 0.589 | 1.06 | 1.03 | 1.02 | 1.03 | 0.311 | 0.299 | 0.298 | 0.281 | 1.03 | 1.18 | 0.995 | 1.27 | 1.07 |
| NCI-H596 |  |  | 0.617 | 0.233 | 1.11 | 1.26 | 0.929 | 1.2 | 0.323 |  | 0.448 | 0.263 | 1.28 | 0.503 | 1.08 | 0.246 | 1.3 |
| EKVX | 0.502 | 0.615 |  | 0.627 | 0.238 | 0.204 | 0.242 | 0.197 | 0.382 | 0.39 | 0.344 | 0.375 | 0.872 | 1.12 | 0.875 | 1.14 | 0.189 |

Reference: the supplement of paper PMC10307832
